T1: ECE-1 (Bos taurus, UniProt P42891)
T1 construct: The entire coding regions from bovine ECE-1; made in house
T1 sequence (P42891 with tags, fused parts or gaps A87G/A695G limits assumed): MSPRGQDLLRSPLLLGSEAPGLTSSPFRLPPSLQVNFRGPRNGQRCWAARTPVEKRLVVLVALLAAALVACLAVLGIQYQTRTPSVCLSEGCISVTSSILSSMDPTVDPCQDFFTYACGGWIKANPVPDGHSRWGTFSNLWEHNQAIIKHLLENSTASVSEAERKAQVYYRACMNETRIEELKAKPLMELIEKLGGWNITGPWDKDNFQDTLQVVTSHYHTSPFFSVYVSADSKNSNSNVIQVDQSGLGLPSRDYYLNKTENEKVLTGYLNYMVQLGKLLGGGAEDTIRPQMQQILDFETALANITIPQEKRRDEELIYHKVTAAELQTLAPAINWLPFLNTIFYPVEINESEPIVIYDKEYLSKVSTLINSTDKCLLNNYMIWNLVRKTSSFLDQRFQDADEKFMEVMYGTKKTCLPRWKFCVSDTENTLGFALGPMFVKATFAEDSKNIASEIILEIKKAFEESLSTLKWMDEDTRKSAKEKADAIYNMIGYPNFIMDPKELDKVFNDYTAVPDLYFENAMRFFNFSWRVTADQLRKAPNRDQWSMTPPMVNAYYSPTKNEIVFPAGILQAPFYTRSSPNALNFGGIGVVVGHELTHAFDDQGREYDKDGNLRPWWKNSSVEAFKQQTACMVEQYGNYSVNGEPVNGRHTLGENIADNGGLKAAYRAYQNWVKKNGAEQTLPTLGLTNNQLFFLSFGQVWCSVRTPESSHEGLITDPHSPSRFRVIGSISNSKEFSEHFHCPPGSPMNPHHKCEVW

B1: ECE-1: novel 758-amino acid polypeptide, bovine endothelin converting enzyme-1 (protein, UniProt P42891 1-754, looked up)
chain: MMSTYKRATLDEEDLVDSLSESDVYPNHLQVNFRGPRNGQRCWAARTPVEKRLVVLVALLAAALVACLAVLGIQYQTRTPSVCLSEACISVTSSILSSMDPTVDPCQDFFTYACGGWIKANPVPDGHSRWGTFSNLWEHNQAIIKHLLENSTASVSEAERKAQVYYRACMNETRIEELKAKPLMELIEKLGGWNITGPWDKDNFQDTLQVVTSHYHTSPFFSVYVSADSKNSNSNVIQVDQSGLGLPSRDYYLNKTENEKVLTGYLNYMVQLGKLLGGGAEDTIRPQMQQILDFETALANITIPQEKRRDEELIYHKVTAAELQTLAPAINWLPFLNTIFYPVEINESEPIVIYDKEYLSKVSTLINSTDKCLLNNYMIWNLVRKTSSFLDQRFQDADEKFMEVMYGTKKTCLPRWKFCVSDTENTLGFALGPMFVKATFAEDSKNIASEIILEIKKAFEESLSTLKWMDEDTRKSAKEKADAIYNMIGYPNFIMDPKELDKVFNDYTAVPDLYFENAMRFFNFSWRVTADQLRKAPNRDQWSMTPPMVNAYYSPTKNEIVFPAGILQAPFYTRSSPNALNFGGIGVVVGHELTHAFDDQGREYDKDGNLRPWWKNSSVEAFKQQTACMVEQYGNYSVNGEPVNGRHTLGENIADNGGLKAAYRAYQNWVKKNGAEQTLPTLGLTNNQLFFLSFAQVWCSVRTPESSHEGLITDPHSPSRFRVIGSISNSKEFSEHFHCPPGSPMNPHHKCEVW
modifications: full-length

Tests used:
NEP = conditions: cited from earlier work
[1] = ET-1(1-20) and ET-1(1-22) relative to authentic ET-1(1-21); cited from earlier work
ECE-1 [2] = molecular target: T1, ECE-1; assay: Secretion of big and mature ET-1 by preproET-1-transfected CHO/ECE-1 cells (conversion of endogenous big ET-1); format: cell-based, bovine; conditions: preproET-1-transfected CHO/ECE-1 cells
Method: Transient transfection of the preproET-1 cDNA was performed by the DEAE-dextran method as described (Sakurai et al., 1990). Twelve hours after transfection, cells were refed with fresh medium with or without ECE inhibitors. The medium was conditioned for an additional 12 hours and directly subjected to EIA for mature and big ET-1 (Suzuki et al., 1990; Suzuki et al., 1989). For the Ca^2+ transient bioassay (see below), Phenol Red-free CHO-SFM medium (Gibco/BRL) without serum was used in order to avoid artefacts induced by serum and the dye.
To examine whether the expressed ECE-1 can convert big ET-1 in intact cells, paired cultures of CHO/ECE-1 cells and untransfected CHO cells were transiently transfected with the preproET-1 construct. After the transient transfection, the amounts of mature and big ET-1 secreted into the medium were measured by EIA. […] The functional authenticity of the immunoreactive mature peptide produced from the double-transfected cells was examined with a bioassay system that uses another line of CHO cells expressing human ETA receptors as reporter cells. […] The cells were loaded with the Ca^2+ indicator Fura-2/AM, and directly challenged with serum-free, Phenol Red-free culture supernatants from the aforementioned double-transfection protocols. […] Next the supernatants from the preproET-1-transfected CHO/ECE-1 cells were added, so that the final concentration of ET-1 as measured by EIA was ≈20 pM.

ECE-1 [3] = molecular target: T1, ECE-1; assay: pH profile of ECE-1 activity in solubilized CHO/ECE-1 membranes; format: biochemical, bovine
Method: FIG. 2C. pH profile of ECE-1 activity expressed in solubilized CHO/ECE-1 membranes.
Reaction mixtures for ECE assay (50 μl) contained 0.1M sodium phosphate buffer (pH 6.8), 0.5M NaCl, 0.1 μM human big ET-1(1-38) and enzyme fraction. For some studies, the reactions were preincubated at 37° C. with various protease inhibitors for 15 minutes prior to the addition of big ET-1. The reactions were incubated at 37° C. for 30 min in siliconized 0.5-ml microcentrifuge tubes. […] Duplicate assay wells were used for each enzyme reaction. Protein concentration was determined by the Bradford method (Bio-Rad) using IgG as standard.

| Molecule | degradation by NEP (in words) (NEP) | vasoconstrictor/biological activity (in words) [1] | concentration secreted in culture supernatant (ECE-1 [2]) | optimal pH of ECE activity (ECE-1 [3]) |
| --- | --- | --- | --- | --- |
| mature ET-1: 21-residue mature peptide; human ET-1(1-21) obtained from American Peptides | rapidly degrades | the most potent vasoconstrictor substance known | 241 pM |  |
| B1 |  |  |  | 6.8 |
